Test results published in article PMC12118597 (Science Advances, 2025).
Where “and” joins values, the source holds several entries; their conditions need not be identical. Equal values may be shown once. Read-outs that look alike come from different tables or passages of the source.

Biological target: SARS-CoV-2 NSP3 macrodomain (Mac1) (Severe acute respiratory syndrome coronavirus 2, UniProt P0DTD1)
Type: binding
Conditions: for Total number of conformations: ligand conformations modeled in the crystal structure; for 2*(1-BDC) (%): occupancy estimate from PanDDA
[1] = crystal soak concentration 20 mM, P43 crystals
[2] = soak concentration 10 mM, DMSO background map
[3] = soak concentration 10 mM, P43 crystals
[4] = PanDDA background density correction factor
[5] = TRUE = crystal structure with ligand obtained
[6] = crystal soak 10 mM, P43 crystal form
[7] = crystal soak 10 mM, DMSO background map
[8] = refined crystallographic occupancy
[9] = site of ligand in X-ray crystal structure
[10] = ligand-bound crystal structure obtained (TRUE)
[11] = site occupied in X-ray crystal structure
[12] = PanDDA background density correction, 1-BDC
[13] = crystal soak 10 mM, TFA/DMSO background map
[14] = site of Mac1 occupied in the X-ray crystal structure

| SMILES | Occupancy difference (refined_occupancy - 2*(1-BDC)) | 1-BDC [4] | X-ray crystal structure [5] | PanDDA run, overall: Hit [6] | PanDDA run, DMSO background map: 1-BDC [7] | PanDDA run, DMSO background map: Hit [7] | Total number of conformations | 2*(1-BDC) (%) | Refined ligand occupancy (%) [8] | Binding site [9] | PanDDA run, overall: Modeled [6] | other results |
| --- | --- | --- | --- | --- | --- | --- | --- | --- | --- | --- | --- | --- |
| COc1ccc(NC(=O)NC2CCCC2)cc1-n1nnnc1C [AVI-311] | – | – | – | – | – | – | – | – | – | – | – | Hit (PanDDA run, DMSO background map) (crystal soak concentration 20 mM, DMSO background map): TRUE; 1-BDC (PanDDA run, DMSO background map) (crystal soak concentration 20 mM, DMSO background map, event 1): 0.12; Hit (PanDDA run, overall) [1]: TRUE; Modeling comment (PanDDA run, overall) [1]: Weak density, not modeled; PanDDA run, DMSO background map: 1-BDC [2]: 0.09; PanDDA run, DMSO background map: Hit [2]: TRUE; PanDDA run, overall: Hit [3]: TRUE; PanDDA run, overall: Modeling comment [3]: Weak density, not modeled |
| OCC(CC(F)(F)F)Nc1ncnc2[nH]ccc12 (centres unmarked) [AVI-3637] | 0 | 0.23 | TRUE | TRUE | 0.23 | TRUE | 1 | 46% | 46% | Adenosine | – | – |
| Cn1cc(CC(CO)Nc2ncnc3[nH]ccc23)cn1 (centres unmarked) [AVI-3657] | 0 | 0.15 | TRUE | TRUE | 0.15 | TRUE | 1 | 30% | 30% | Adenosine | TRUE | – |
| C#CCC(CO)Nc1ncnc2[nH]ccc12 (centres unmarked) [AVI-3644] | 0 | 0.18 | TRUE | TRUE | 0.18 | TRUE | 1 | 36% | 36% | Adenosine | TRUE | – |
| O=C(O)C(F)(F)F.OC[C@@H]1CC2(CC2)CN1c1ncnc2[nH]ccc12 [AVI-3710] | 0 | 0.26 | – | TRUE | 0.26 | TRUE | 2 | 52% | 52% | – | – | PanDDA run, overall: Modeling comment (crystal soak 10 mM): Weak density for open state of Phe132 loop; X-ray crystal structure [10]: TRUE; Binding site [11]: Adenosine |
| OCC(CC1CCCO1)Nc1ncnc2[nH]ccc12 (centres unmarked) [AVI-3660] | 0 | 0.23 | TRUE | TRUE | 0.23 | TRUE | 1 | 46% | 46% | Adenosine | TRUE | – |
| CC(C)C1CCCN1c1ncnc2[nH]ccc12 (centres unmarked) [AVI-5216] | – | – | – | – | – | – | – | 26% | – | – | – | 1-BDC [12]: 0.13; Refined ligand occupancy (%) (crystallographic refinement): 40%; X-ray crystal structure [10]: TRUE; Binding site [11]: Adenosine |
| O=C(O)C(F)(F)F.OCC1C2C=CC(C2)N1c1ncnc2[nH]ccc12 (centres unmarked) [AVI-3712] | – | – | – | TRUE | 0.15 | TRUE | – | – | – | – | – | PanDDA run, overall: Modeling comment (crystal soak 10 mM): Weak density, not modeled; PanDDA run, TFA/DMSO background map: 1-BDC [13]: 0.05; PanDDA run, TFA/DMSO background map: Hit [13]: TRUE |
| CCC(Nc1ncnc2[nH]ccc12)C(C)O (centres unmarked) [AVI-3635] | 0 | 0.14 | TRUE | TRUE | 0.23 and 0.14 | TRUE | 2 | 28% | 28% | Adenosine | TRUE | – |
| CCCC(CO)Nc1ncnc2[nH]ccc12 (centres unmarked) [AVI-3643] | 0 | 0.16 | TRUE | TRUE | 0.16 | TRUE | 1 | 32% | 32% | Adenosine | TRUE | – |
| CC(O)C(C)Nc1ncnc2[nH]ccc12 (centres unmarked) [AVI-5158] | – | – | TRUE | – | – | – | – | 34% | – | Adenosine | – | 1-BDC [12]: 0.17; Refined ligand occupancy (%) (crystallographic refinement): 34% |
| OCC(Nc1ncnc2[nH]ccc12)c1ccco1 (centres unmarked) [AVI-3659] | 0 | 0.16 | TRUE | TRUE | 0.16 | TRUE | 1 | 32% | 32% | Adenosine | TRUE | – |
| NC(=O)C1(O)CCN(c2ncnc3[nH]ccc23)C1 (centres unmarked) [AVI-611] | 0 | 0.22 | TRUE | TRUE | 0.22 | TRUE | 2 | 44% | 44% | – | – | Binding site [14]: Adenosine |
| OC1CCCN(c2ncnc3[nH]ccc23)C1 (centres unmarked) [AVI-3646] | 0 | 0.22 | TRUE | TRUE | 0.22 | TRUE | 1 | 44% | 44% | – | TRUE | Binding site [14]: Adenosine |
| CCn1c(C)nnc1Sc1cnc2ccccc2n1 [AVI-297] | – | – | – | – | – | – | – | – | – | – | – | PanDDA run, DMSO background map: 1-BDC (DMSO background map, event 1, soak concentration 10 mM): 0.05; PanDDA run, DMSO background map: Hit (DMSO background map, soak concentration 10 mM): TRUE; PanDDA run, overall: Modeling comment (crystal soak, P43 crystals, soak concentration 10 mM): Only density for quinoxaline, not modeled; PanDDA run, overall: Hit (crystal soak, P43 crystals, soak concentration 10 mM for the hits shown): TRUE |
| OCC1CCCN1c1ncnc2[nH]ccc12 (centres unmarked) [AVI-3685] | 20 | 0.25 | – | TRUE | 0.25 | TRUE | 1 | 50% | 70% | – | TRUE | X-ray crystal structure [10]: TRUE; Binding site [11]: Adenosine |
| CC(C)(C)C1CCC(CO)N(c2ncnc3[nH]ccc23)C1 (centres unmarked) [AVI-3719] | 0 | 0.08 | – | TRUE | 0.08 | TRUE | 1 | 16% | 16% | – | – | Phe132 loop open state: TRUE; X-ray crystal structure [10]: TRUE; Binding site [11]: Adenosine |
